Values of other authors, collected in PubChem BioAssay AID1259410 (Chemical Carcinogenesis Research Information System (CCRIS), 2018).

System: rodent tumor promotion studies, tumor incidence
Experiment: CCRIS tumor promotion studies
[1] = Carcinogen: 7,12-DIMETHYLBENZ(A)ANTHRACENE, Doses [Carcinogen]: TOP, Route [Carcinogen]: DERMAL, Route [Promoter]: DERMAL, Species: MOUSE, Strain/Sex: FEMALE

For `O=c1[nH]cnc2[nH]ncc12`, the outcome (Carcinogen: N-(4-(5-NITRO-2-FURYL)-2-THIAZOLYL)FORMAMIDE, Doses [Carcinogen]: DIET, Doses [Promoter]: IN DIET, Route [Carcinogen]: ORAL, Route [Promoter]: ORAL, Species: RAT, Strain/Sex: FEMALE) is listed as “urinary bladder”.
For `O=C1OC(O)C(C(Cl)Cl)=C1Cl` (stereo not given), the outcome (Carcinogen: N-METHYL-N'-NITRO-N-NITROSOGUANIDINE [70-25-7], SODIUM CHLORIDE [7647-14-5], Doses [Carcinogen]: 100 PPM MNNG IN DRINKING WATER FOR 8 WK, 5% SODIUM CHLORIDE IN DIET FOR 8 WK (STUDY DURATION: 65 WK), Doses [Promoter]: 30 PPM IN DRINKING WATER FOR 53 WK BEGINNING POST LAST CARCINOGEN DOSE (STUDY DURATION: 65 WK), Route [Carcinogen]: ORAL, ORAL, Route [Promoter]: ORAL, Species: RAT, Strain/Sex: WISTAR/MALE) is listed as “glandular stomach: adenocarcinoma”.
For `Clc1cc(Cl)c(-c2ccc(Cl)c(Cl)c2Cl)cc1Cl`, the outcome (Carcinogen: N-NITROSODIMETHYLAMINE, 62-75-9, Doses [Carcinogen]: 5 MG/KG IN SALINE ON POSTNATAL DAY 4, Doses [Promoter]: 0, 20 MG/KG IN OLIVE OIL ON POSTNATAL DAY 8 (STUDY DURATION: 16 WK), Route [Carcinogen]: INTRAPERITONEAL, Route [Promoter]: GAVAGE, Species: MOUSE, Strain/Sex: SWISS/MALE, FEMALE) is listed as “lung: tumor”.
For `N[C@@H](CC(=O)O)C(=O)O`, the outcome (Carcinogen: N-BUTYL-N-(4-HYDROXYBUTYL)NITROSAMINE, 3817-11-6, Doses [Carcinogen]: 0.05% IN DRINKING WATER FOR 4 WK, Doses [Promoter]: 0, 5% IN DRINKING WATER FOR 36 WK BEGINNING POST CARCINOGEN TREATMENT (STUDY DURATION: 40 WK), Route [Carcinogen]: ORAL, Route [Promoter]: ORAL, Species: RAT, Strain/Sex: F344/FEMALE) is given as “urinary bladder: carcinoma” and the outcome (Carcinogen: N-BUTYL-N-(4-HYDROXYBUTYL)NITROSAMINE, 3817-11-6, Doses [Carcinogen]: 0.05% IN DRINKING WATER FOR 4 WK, Doses [Promoter]: 0, 5% IN DRINKING WATER FOR 36 WK BEGINNING POST CARCINOGEN TREATMENT (STUDY DURATION: 40 WK), Route [Carcinogen]: ORAL, Route [Promoter]: ORAL, Species: RAT, Strain/Sex: F344/MALE) is given as “urinary bladder: carcinoma”.
In the case of `C=CCS(=O)(=O)CC=C`, the outcome (Carcinogen: Vinyl carbamate, 15805-73-9, Doses [Carcinogen]: 60 mg/kg once 2 hr after inhibitor (Study duration: 25 wk), Doses [Promoter]: 50 mg/kg once at beginning of experiment (Study duration: 25 wk), Route [Carcinogen]: Intraperitoneal, Route [Promoter]: Oral, Species: Mouse, Strain/Sex: F1 (Big Blue x A/J) (43/?)/47/?)) is given as “lung: solid tumors (61 (42%), 135 (86.5%), p<0.01)”.
For `C[C@]12CC[C@@H]3c4ccc(OS(=O)(=O)O)cc4CC[C@H]3[C@@H]1CCC2=O`, the outcome (Carcinogen: 7,12-Dimethylbenz[a]anthrene, 57-97-6, Doses [Carcinogen]: 5 mg in corn oil, intragastric, once, Doses [Promoter]: 100 ng/ml in drinking water, study duration 20 wk, Route [Carcinogen]: Oral, Route [Promoter]: Oral, Species: Rat, Strain/Sex: Sprague-Dawley/Female (16/group)) is given as “mammary gland: tumor”.
In the case of `CCCCCCCCCCCC`, the outcome [1] is given as “integumentary system (skin)”.
For `Oc1ccc(Cl)cc1Cl`, the outcome [1] is given as “integumentary system (skin)”.
For `Oc1ccc(/C=C/c2cc(O)cc(O)c2)cc1`, the outcome (Carcinogen: N-METHYL-N-NITROSOUREA, 684-93-5, Doses [Carcinogen]: 50 MG/KG ONCE AT 7 WK OF AGE, Doses [Promoter]: 100 MG/KG DAILY FOR 5 D AT 2 WK OF AGE (STUDY DURATION: 37 WK), Route [Carcinogen]: INTRAPERITONEAL, Route [Promoter]: SUBCUTANEOUS, Species: RAT, Strain/Sex: SPRAGUE-DAWLEY/FEMALE) is listed as “mammary gland: adenocarcinoma”.
In the case of `CCCCCCC(=O)C/C=C/CCCCCCCC(=O)OC`, the outcome (Carcinogen: 4-NITROQUINOLINE-1-OXIDE, Doses [Carcinogen]: IG, Doses [Promoter]: IN DIET, Route [Carcinogen]: GAVAGE, Route [Promoter]: ORAL, Species: MOUSE, Strain/Sex: MALE,FEMALE) is given as “forestomach” and the outcome (Carcinogen: 7,12-DIMETHYLBENZ(A)ANTHRACENE, Doses [Carcinogen]: TOP, Route [Carcinogen]: DERMAL, Route [Promoter]: DERMAL, Species: MOUSE, Strain/Sex: MALE,FEMALE) is given as “integumentary system (skin)”.
In the case of `COc1cccc(O)c1O`, the outcome (Carcinogen: DIETHYLNITROSAMINE, 55-18-5, N-METHYL-N-NITROSOUREA, 684-93-5, 1,2-DIMETHYLHYDRAZINE, 540-73-8, N-BUTYL-N-(4-HYDRO, Carcinogen: DIETHYLNITROSAMINE, 55-18-5, N-METHYL-N-NITROSOUREA, 684-93-5, 1,2-DIMETHYLHYDRAZINE, 540-73-8, N-BUTYL-N-(4-HYDRO, Doses [Carcinogen]: 100 MG/KG BW DEN ONCE THEN 20 MG/KG BW MNU 1/D FOR 4 D FOLLOWED BY 40 MG/KG BW DMH 1/D FOR 4 D, 0.05% BHBN IN DRINKING W, Doses [Promoter]: 0, 2% IN DIET FOR 24 WK BEGINNING 3 D POST CARCINOGEN TREATMENT (STUDY DURATION: 28 WK), Route [Carcinogen]: INTRAPERITONEAL, INTRAPERITONEAL, SUBCUTANEOUS, ORAL, Route [Carcinogen]: INTRAPERITONEAL, INTRAPERITONEAL, SUBCUTANEOUS, ORAL, Route [Promoter]: ORAL, Species: RAT, Strain/Sex: F344/MALE) is given as “forestomach: papilloma, squamous cell carcinoma or carcinoma in situ; glandular”.
In the case of `c1ccc(-c2ccccc2)cc1`, the outcome (Carcinogen: N-BUTYL-N-(4-HYDROXYBUTYL)NITROSAMINE, 3817-11-6, Doses [Carcinogen]: 0.05% IN DRINKING WATER FOR 4 WK, Doses [Promoter]: 0, 0.5% IN DIET FOR 32 WK BEGINNING POST CARCINOGEN TREATMENT (STUDY DURATION: 36 WK), Route [Carcinogen]: ORAL, Route [Promoter]: ORAL, Species: RAT, Strain/Sex: F344/MALE) is given as “urinary bladder: papilloma, carcinoma”.
For `Oc1c(Cl)c(Cl)c(Cl)c(Cl)c1Cl`, the outcome (Carcinogen: DIETHYLNITROSAMINE [55-18-5], Doses [Carcinogen]: 20 PPM IN DRINKING WATER FOR 13 WEEKS (STUDY DURATION: 42 WK), Doses [Promoter]: 300 PPM IN DIET FOR 25 WK BEGINNING 4 WK POST LAST CARCINOGEN DOSE (STUDY DURATION: 42 WK), Route [Carcinogen]: ORAL, Route [Promoter]: ORAL, Species: MOUSE, Strain/Sex: B6C3F1/MALE) is given as “liver: adenoma or carcinoma” and the outcome (Carcinogen: DIETHYLNITROSAMINE [55-18-5], Doses [Carcinogen]: 20 PPM IN DRINKING WATER FOR 13 WEEKS (STUDY DURATION: 42 WK), Doses [Promoter]: 600 PPM IN DIET FOR 25 WK BEGINNING 4 WK POST LAST CARCINOGEN DOSE (STUDY DURATION: 42 WK), Route [Carcinogen]: ORAL, Route [Promoter]: ORAL, Species: MOUSE, Strain/Sex: B6C3F1/MALE) is given as “liver: adenoma or carcinoma”.
In the case of `CC(=O)O`, the outcome (Carcinogen: LEAD SUBACETATE, 1335-32-6, Doses [Carcinogen]: 1% IN DIET FOR 18 MO, Doses [Promoter]: 0, 0.3, 1, 3, 6% IN DIET FOR 18 MO (STUDY DURATION: 79 WK), Doses [Promoter]: 0, 0.3, 1, 3, 6% IN DIET FOR 18 MO (STUDY DURATION: 79 WK), Route [Carcinogen]: ORAL, Route [Promoter]: ORAL, Species: RAT, Strain/Sex: SPRAGUE-DAWLEY/MALE) is given as “kidney: tumor”.
In the case of `CC1=C[C@H]2[C@@]3(O)[C@H](C)[C@@H](O)[C@]4(O)[C@H]([C@@H]3C=C(CO)C[C@]2(O)C1=O)C4(C)C`, the outcome (Carcinogen: 2-(ACETYLAMINO)FLUORINE, Doses [Carcinogen]: TRANS-PLACENTAL, Route [Carcinogen]: TRANS-PLACENTAL, Route [Promoter]: INTRAPERITONEAL, Species: MOUSE, Strain/Sex: C57BL/MALE,FEMALE) is given as “liver”, the outcome (Carcinogen: 7,12-DIMETHYLBENZ(A)ANTHRACENE, Doses [Carcinogen]: IG, Route [Carcinogen]: GAVAGE, Route [Promoter]: INTRAPERITONEAL, Species: RAT, Strain/Sex: FEMALE) is given as “mammary glands; hematopoietic system (leukemia, thymic)” and the outcome (Carcinogen: 7,12-DIMETHYLBENZ(A)ANTHRACENE, Doses [Carcinogen]: TOP, Route [Carcinogen]: DERMAL, Route [Promoter]: INTRAPERITONEAL, Species: MOUSE, Strain/Sex: FEMALE) is given as “hematopoietic system (leukemia, nonthymic)”. The outcome (Carcinogen: DIMETHYLNITROSAMINE, Doses [Carcinogen]: SC, Route [Carcinogen]: SUBCUTANEOUS, Route [Promoter]: INTRAPERITONEAL, Species: MOUSE, Strain/Sex: MALE,FEMALE) was “lung; liver”.
For `c1ccc2c(c1)cc1ccc3cccc4ccc2c1c34`, the outcome (Carcinogen: BENZO[A]PYRENE [50-32-8], Doses [Carcinogen]: 8 MMOL/MOUSE 3X/WK FOR 25 WKS (STUDY DURATION: 30 WKS), Doses [Promoter]: UVA 40 KJ/M2 FOR 25 WKS 2 HR AFTER CARCINOGEN TREATMENT (STUDY DURATION: 30 WKS), Route [Carcinogen]: DERMAL, Route [Promoter]: IRRADIATION TO SKIN, Species: MOUSE, Strain/Sex: SKH-1/FEMALE (20/GROUP)) is given as “skin: tumor incidence and multiplicity increased”.
For `N[C@@H](Cc1cc(I)c(Oc2cc(I)c(O)c(I)c2)c(I)c1)C(=O)O`, the outcome (Carcinogen: AZOXYMETHANE, 25843-45-2, Doses [Carcinogen]: 7.4 MG/KG IN 0.9% SALINE 1/WK FOR 10 WK, Doses [Promoter]: 0, 0.2 UG/KG IN OLIVE OIL 1/2 D FOR 35 WK (STUDY DURATION: 35 WK), Route [Carcinogen]: SUBCUTANEOUS, Route [Promoter]: SUBCUTANEOUS, Species: RAT, Strain/Sex: WISTAR/MALE) is given as “colon: tumor” and the outcome (Carcinogen: N-METHYL-N'-NITRO-N-NITROSOGUANIDINE, 70-25-7, Doses [Carcinogen]: 25 UG/ML IN DRINKING WATER FOR 25 WK, Doses [Promoter]: 0, 0.2 UG/KG BW IN OLIVE OIL 1/2 D BEGINNING POST CARCINOGEN TREATMENT AND CONTINUING FOR 26 WK (STUDY DURATION: 52 WK), Route [Carcinogen]: ORAL, Route [Promoter]: SUBCUTANEOUS, Species: RAT, Strain/Sex: WISTAR/MALE) is given as “stomach: adenocarcinoma”.
For `O=C(O)CCC(=O)O`, the outcome (Carcinogen: N-BUTYL-N-(4-HYDROXYBUTYL)NITROSAMINE, 3817-11-6, Doses [Carcinogen]: 0.05% IN DRINKING WATER FOR 4 WK, Doses [Promoter]: 0, 5% IN BASAL DIET BEGINNING POST CARCINOGEN TREATMENT AND CONTINUING FOR 32 WK (STUDY DURATION: 36 WK), Route [Carcinogen]: ORAL, Route [Promoter]: ORAL, Species: RAT, Strain/Sex: F344/MALE) is given as “urinary bladder: papilloma, carcinoma”.
